The values that follow are results of earlier work, collected in patent US20130224794A1, “MINERAL-PEPTIDE CHELATES” (NUGEN BIOSCIENCE (TAIWAN) CO., LTD., priority 2009, published 2013).

Read-outs that look alike come from different tables or passages of the source.

The conditions of the series: for absorption: qualitative.
The mark [1] stands for this setting: general soybean isoflavones, glucoside vs aglycone form.

In the case of `O=c1c(-c2ccc(O)cc2)coc2cc(O)ccc12` [daidzein], under “in vivo”, the bioavailability is reported as 90%.

On to `O=c1c(-c2ccc(O)cc2)coc2cc(O[C@@H]3O[C@H](CO)[C@@H](O)[C@H](O)[C@H]3O)ccc12` [daidzin], for which, under setting [1], the bioavailability was 20% and the absorption entry is “slow”.

Turning to `O=c1c(-c2ccc(O)cc2)coc2cc(O)cc(O)c12` [genistein], under setting [1], the bioavailability is 90% and the absorption result is recorded as “fast”.

Take `O=c1c(-c2ccc(O)cc2)coc2cc(O[C@@H]3O[C@H](CO)[C@@H](O)[C@H](O)[C@H]3O)cc(O)c12` [genistin]: under setting [1], the bioavailability is 20% and the absorption entry was “slow”.
